This is an account of results in PubChem BioAssay (NCI).

The structures appear in SMILES notation.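 Briefly, cells in 96-well plates were exposed to five compound concentrations for 48 h, and endpoints were estimated by linear interpolation. At the GI50, growth is halved. TGI denotes the concentration required for complete inhibition of growth.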

This test has as its system MDA-MB-468 breast. The test can be described thus: NCI-60 cell line screen, 48 h.
On to `CCCCn1c(=O)c2c(nc3n2CCCN3CCc2ccc(OCC(=O)NCCN(CC)CC)cc2)n(CCCC)c1=O`, for which the GI50 was 1730 nM and the TGI came to 6860 nM.

With `COc1cc2c(c(OC)c1OC)-c1ccc(SC)c(=O)cc1[C@@H](NC1OC(CO)C(O)C(O)C1O)CC2` (some centres undefined), the GI50 is 34.3 nM and the TGI was greater than 100000 nM.

For `Cn1cc(-c2nonc2-c2cn(C)c3ccccc23)c2ccccc21`, the GI50 was 492 nM and the TGI is greater than 32400 nM.

For the compound `CC1(C)N=C(N)N=C(N)N1c1ccc(CCCCc2ccc(S(=O)(=O)F)cc2)c(Cl)c1`, the GI50 is 281 nM and the TGI was 10800 nM.

As to `O=C1NC(=O)C(c2cccc(Cl)c2)=C1Nc1ccc(O)c(Cl)c1`, the GI50 is 5940 nM and the TGI was greater than 20300 nM.

For `CCN(CCO)CC(C)Nc1ccc([N+](=O)[O-])c2sc3ccccc3c(=O)c12` (centres undefined), the GI50 was 1680 nM and the TGI was 7290 nM.

Regarding `CCN(Cc1ccc(Cl)s1)c1ccc(CO)c(Cl)c1`, the GI50 was 19.3 nM and the TGI worked out at 52.6 nM.

In the case of `Cc1cccc(NC(=O)c2sc3nc4c(cc3c2N)CN(Cc2ccccc2)CC4)c1C`, the GI50 is 151 nM and the TGI was 11600 nM.

In the case of `COc1ccc(OC)c(Cn2cc3c(c2)-c2oncc2CC3)c1`, the GI50 was 1200 nM and the TGI was 4370 nM.

For the compound `CC(=O)Oc1ccccc1C(=O)/C=C/c1cccc([N+](=O)[O-])c1`, the GI50 was 2030 nM and the TGI was 4000 nM.

Take `OC(c1cc2cc(Cl)c(Cl)cc2c2cc(C(F)(F)F)ccc12)C1CCCCN1` (centres undefined): the GI50 is 1580 nM and the TGI was 2940 nM.

With `COc1ccc(C(=O)N2c3ccccc3Sc3ccccc32)c(OC)c1`, the GI50 is 327 nM and the TGI was determined as 56100 nM.

For `COc1ccc(C2[C@@H](Cl)C(=O)N2c2cc(OC)c(OC)c(OC)c2)cc1Cl` (some centres undefined), the GI50 is 201 nM and the TGI is 963 nM.

Regarding `CCN1C(=O)N(CC)C2C1NN=c1s/c(=C3\C(=O)N(CCc4ccccc4)c4ccccc43)c(=O)n12` (centres undefined), the GI50 is 338 nM and the TGI came to 2370 nM.

As to `O=C(Nc1cccc(Nc2ncc(Br)c(NCCc3cnc[nH]3)n2)c1)N1CCCC1`, the GI50 was 637 nM and the TGI stood at 9090 nM.

`COc1ccc(/C=N/NC(=O)Cn2c(-c3ccc(S(C)(=O)=O)cc3)nc3cc(Cl)ccc32)cc1`: the GI50 was 1510 nM and the TGI came out at 9140 nM.

As to `CN1CCN(Cc2ccc(NC(=O)c3[nH]ncc3Nc3ncnc4sc5c(c34)CCCC5)cc2)CC1`, the GI50 is 476 nM and the TGI amounted to 2300 nM.

On to `COc1ccc2cc(-c3c(-c4ccncc4)nc(-c4ccc(S(C)=O)cc4)n3C)ccc2c1` (centres undefined), for which the GI50 is 3110 nM and the TGI is greater than 25000 nM.

Regarding `COc1ccc2c(c1)OC1=C(C(=O)OC1)C2c1cc(OC)c2c(c1)OCO2` (centres undefined), the GI50 is 26.4 nM and the TGI was 98.7 nM.

For `Cc1nc2ccccc2c(/C=C/c2ccc(Br)cc2)c1C(=O)/C=C/c1ccccc1`, the GI50 is 1980 nM and the TGI was determined as 4200 nM.

For the compound `CC(C)(C)c1ccc(C(=O)Nc2sc3c(c2C(N)=O)CCC(=O)C3)cc1`, the GI50 is 506 nM and the TGI worked out at 2090 nM.

For the compound `O=c1[nH]cnc2c(C3NC(CO)C(O)C3O)c[nH]c12` (centres undefined), the GI50 is greater than 100000 nM and the TGI is greater than 100000 nM.

On to `N#CN1CC[C@H](C(=O)Nc2ncc(-c3ccncc3)s2)C1`, for which the GI50 was less than 15.6 nM and the TGI is less than 28.2 nM.

As to `O=[N+]([O-])c1cc(S(=O)(=O)Oc2ccccc2)ccc1Cl`, the GI50 is 1830 nM and the TGI was 3640 nM.

As for `CCN1C(=O)N(CC)C2C1NN=c1s/c(=C\c3ccccc3Br)c(=O)n12` (centres undefined), the GI50 is 35.2 nM and the TGI is 1150 nM.

As for `C[C@@H]1O[C@@H](O[C@H]2CC[C@@]3(C)[C@H](CCC4[C@@H]3C(O)C[C@]3(C)[C@@H](c5ccc(=O)oc5)CC[C@]43O)C2)[C@H](O)[C@H](O)[C@H]1O` (some centres undefined), the GI50 was 5.94 nM and the TGI was determined as 12.1 nM.

For `CN1CCC(n2cnc(-c3ccc(F)cc3)c2-c2ccnc(N)n2)CC1`, the GI50 is 3320 nM and the TGI is 21100 nM.

For `CCCCCn1sc(=O)n(Cc2ccc(CNC(=O)OCc3ccc4cccc(O)c4n3)cc2)c1=O`, the GI50 was 1710 nM and the TGI stood at 3560 nM.

As to `Cc1c(C2=C(c3cn(C)c4ccccc34)C(=O)NC2=O)c2ccccc2n1C`, the GI50 was 921 nM and the TGI was greater than 22500 nM.

Consider `O=C(Oc1cccnc1)c1ccsc1Nc1ccnc(C(F)(F)F)c1`, for which the GI50 is 1800 nM and the TGI came to 4400 nM.

As to `COC(=O)c1nc(-c2ccccc2)oc1S(=O)(=O)n1nc(C)cc1N`, the GI50 is 3980 nM and the TGI came out at 16900 nM.

For `CCOP(=O)(OCC)OC[C@]12CC[C@@H](C)[C@H](C)C1C1=CC[C@@H]3[C@@]4(C)CCCNC(C)(C)[C@@H]4CC[C@@]3(C)[C@]1(C)CC2` (some centres undefined), the GI50 was 1390 nM and the TGI is 2910 nM.

Consider `CC1OC(O[C@H]2/C=C/C=C/C=C/C=C/C=C/C=C/C=C/[C@H](C)[C@@H](O)[C@@H](C)[C@H](C)OC(=O)CC(O)CC(O)CCC(O)C(O)CC(O)C[C@]3(O)C[C@H](O)C(C(=O)O)C(C2)O3)C(O)[C@H](N)C1O` (some centres undefined), for which the GI50 is 14900 nM and the TGI worked out at 32400 nM.

For `CC(C)=CCC/C(C)=C/CC/C(C)=C/CC/C=C(\C)CC/C=C(\C)CCC(=O)Nc1ccn(C2OC(CO)C(O)C2(F)F)c(=O)n1` (centres undefined), the GI50 was 185 nM and the TGI came to 35800 nM.

`CC(C)(C)CN1CCn2c(nc3c(N)nccc32)S1`: the GI50 was 5380 nM and the TGI stood at 50300 nM.

`COc1cc(/C=C/[N+](=O)[O-])cc(Br)c1OC`: the GI50 was 1590 nM and the TGI was 3280 nM.

Regarding `COc1ccc(-c2oc3cc(O)cc(O)c3c(=O)c2OC)cc1O`, the GI50 was 565 nM and the TGI turned out to be 3450 nM.
